Reference: patent US9981986B2, “Antimicrobial compounds” (OXFORD UNIVERSITY INNOVATION LIMITED, priority 2012, dated 2018)
Converted amounts (≈) assume the structure as drawn.

Experiments:
[1] = test system: Staphylococcus aureus N.C.T.C. 6571; experiment: hole-plate method, inhibition zones, S. aureus; assay type: cell-based; details: inhibition zone diameter
Experimental: (§1) Various compounds illustrative of the compounds of the present invention were synthesised and tested for their bioactivity. Microbiological assays were performed by the hole-plate method with the test organism Staphylococcus aureus N.C.T.C. 6571 or E. coli X580. […] The diameters of the resultant inhibition zones were measured.

E. Coli RNAP = E. Coli RNAP (Escherichia coli, UniProt P0A8T7+P0A8V2); experiment: In vitro activity against E. Coli RNAP; assay type: biochemical; details: read-out: RNA IC50
E. Coli RNAP, sequence (P0A8V2 whole entry): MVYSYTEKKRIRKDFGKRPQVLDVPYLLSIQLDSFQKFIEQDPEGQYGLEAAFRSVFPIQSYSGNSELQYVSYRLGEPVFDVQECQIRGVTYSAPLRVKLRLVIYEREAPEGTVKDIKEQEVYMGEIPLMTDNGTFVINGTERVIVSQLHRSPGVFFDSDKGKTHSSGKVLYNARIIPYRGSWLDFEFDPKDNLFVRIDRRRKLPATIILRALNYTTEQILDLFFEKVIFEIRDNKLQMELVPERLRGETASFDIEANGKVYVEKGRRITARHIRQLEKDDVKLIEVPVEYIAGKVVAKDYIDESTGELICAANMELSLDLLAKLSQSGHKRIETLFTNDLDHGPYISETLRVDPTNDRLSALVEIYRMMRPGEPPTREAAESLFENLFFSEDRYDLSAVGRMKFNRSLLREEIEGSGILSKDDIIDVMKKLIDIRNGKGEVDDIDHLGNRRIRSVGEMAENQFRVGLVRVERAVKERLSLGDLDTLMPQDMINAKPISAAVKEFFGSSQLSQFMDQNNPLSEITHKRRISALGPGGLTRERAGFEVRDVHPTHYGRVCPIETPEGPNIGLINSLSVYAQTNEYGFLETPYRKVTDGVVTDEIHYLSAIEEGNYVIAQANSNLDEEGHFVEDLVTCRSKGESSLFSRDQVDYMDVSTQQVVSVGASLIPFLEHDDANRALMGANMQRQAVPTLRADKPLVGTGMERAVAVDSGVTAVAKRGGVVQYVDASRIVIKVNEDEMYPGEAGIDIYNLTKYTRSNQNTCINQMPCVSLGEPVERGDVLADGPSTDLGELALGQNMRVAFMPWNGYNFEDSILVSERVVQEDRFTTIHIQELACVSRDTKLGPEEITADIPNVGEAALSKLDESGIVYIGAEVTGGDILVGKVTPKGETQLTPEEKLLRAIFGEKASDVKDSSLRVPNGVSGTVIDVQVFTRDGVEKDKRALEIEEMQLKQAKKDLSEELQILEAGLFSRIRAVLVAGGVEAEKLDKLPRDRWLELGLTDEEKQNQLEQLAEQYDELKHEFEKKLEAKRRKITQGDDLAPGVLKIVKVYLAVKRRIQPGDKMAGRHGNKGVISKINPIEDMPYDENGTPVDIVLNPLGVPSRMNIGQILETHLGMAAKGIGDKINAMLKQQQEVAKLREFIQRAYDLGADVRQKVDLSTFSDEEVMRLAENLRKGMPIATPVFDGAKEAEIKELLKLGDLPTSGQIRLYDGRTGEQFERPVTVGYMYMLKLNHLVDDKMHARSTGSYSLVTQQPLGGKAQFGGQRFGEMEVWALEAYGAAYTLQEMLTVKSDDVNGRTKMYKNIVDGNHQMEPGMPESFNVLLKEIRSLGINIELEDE
E. Coli RNAP, sequence (P0A8T7 whole entry): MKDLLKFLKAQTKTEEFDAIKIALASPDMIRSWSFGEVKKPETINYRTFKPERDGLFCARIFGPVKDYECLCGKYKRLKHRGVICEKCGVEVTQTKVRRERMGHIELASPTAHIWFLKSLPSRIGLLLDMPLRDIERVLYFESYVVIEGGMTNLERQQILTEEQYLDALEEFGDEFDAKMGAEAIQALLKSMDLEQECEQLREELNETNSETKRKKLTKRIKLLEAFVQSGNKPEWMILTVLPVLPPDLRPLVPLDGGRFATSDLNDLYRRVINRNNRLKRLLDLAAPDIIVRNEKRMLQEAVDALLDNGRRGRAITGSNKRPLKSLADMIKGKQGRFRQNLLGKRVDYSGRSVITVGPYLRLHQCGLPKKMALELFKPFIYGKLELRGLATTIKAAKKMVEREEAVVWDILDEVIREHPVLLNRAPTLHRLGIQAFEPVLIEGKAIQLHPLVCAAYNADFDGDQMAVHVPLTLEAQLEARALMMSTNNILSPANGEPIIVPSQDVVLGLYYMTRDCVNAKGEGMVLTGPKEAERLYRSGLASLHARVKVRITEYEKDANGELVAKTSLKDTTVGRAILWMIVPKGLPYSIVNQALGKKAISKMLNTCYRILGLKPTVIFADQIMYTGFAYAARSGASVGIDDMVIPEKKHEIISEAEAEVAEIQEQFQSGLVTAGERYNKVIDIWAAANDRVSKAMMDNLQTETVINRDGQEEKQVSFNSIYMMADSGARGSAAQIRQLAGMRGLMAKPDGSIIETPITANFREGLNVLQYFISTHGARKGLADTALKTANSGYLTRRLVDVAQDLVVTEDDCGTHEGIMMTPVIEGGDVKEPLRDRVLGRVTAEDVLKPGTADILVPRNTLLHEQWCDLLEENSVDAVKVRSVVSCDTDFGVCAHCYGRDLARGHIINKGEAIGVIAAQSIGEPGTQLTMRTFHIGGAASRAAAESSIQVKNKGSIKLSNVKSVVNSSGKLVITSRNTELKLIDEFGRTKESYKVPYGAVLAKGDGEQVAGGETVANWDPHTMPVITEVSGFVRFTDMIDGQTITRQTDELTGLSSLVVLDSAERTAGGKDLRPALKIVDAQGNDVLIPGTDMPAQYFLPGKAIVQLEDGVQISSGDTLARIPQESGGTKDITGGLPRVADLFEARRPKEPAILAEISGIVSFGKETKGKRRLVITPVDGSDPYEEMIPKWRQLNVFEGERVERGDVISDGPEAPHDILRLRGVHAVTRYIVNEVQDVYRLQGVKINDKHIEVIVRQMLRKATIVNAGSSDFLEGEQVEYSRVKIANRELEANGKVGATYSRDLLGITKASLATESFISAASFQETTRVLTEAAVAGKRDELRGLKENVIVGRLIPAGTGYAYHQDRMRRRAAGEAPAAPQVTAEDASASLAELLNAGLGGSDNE
E. Coli RNAP, sequence (P0A7Z4 whole entry partner): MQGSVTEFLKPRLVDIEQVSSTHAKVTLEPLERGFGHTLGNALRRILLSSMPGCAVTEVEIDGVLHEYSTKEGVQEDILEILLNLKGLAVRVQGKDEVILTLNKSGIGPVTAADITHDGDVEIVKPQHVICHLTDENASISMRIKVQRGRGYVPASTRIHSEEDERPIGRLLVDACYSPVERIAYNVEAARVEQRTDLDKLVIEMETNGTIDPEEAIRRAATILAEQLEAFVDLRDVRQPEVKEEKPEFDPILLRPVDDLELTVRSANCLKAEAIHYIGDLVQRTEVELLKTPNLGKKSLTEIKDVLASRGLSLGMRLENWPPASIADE
E. Coli RNAP, sequence (P0A800 whole entry partner): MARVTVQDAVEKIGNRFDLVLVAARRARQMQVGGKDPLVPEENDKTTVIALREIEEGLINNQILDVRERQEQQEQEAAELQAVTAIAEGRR
Text: (§2) These properties can be determined according to techniques that are well known in the art.

S. pneumonia UPPS = molecular target: T1, S. pneumonia UPPS (Streptococcus pneumoniae serotype 4, UniProt Q97SR4); experiment: In vitro activity against S. pneumonia UPPS; assay type: biochemical; details: read-out: UPP IC50
T1 sequence (Q97SR4 1-252): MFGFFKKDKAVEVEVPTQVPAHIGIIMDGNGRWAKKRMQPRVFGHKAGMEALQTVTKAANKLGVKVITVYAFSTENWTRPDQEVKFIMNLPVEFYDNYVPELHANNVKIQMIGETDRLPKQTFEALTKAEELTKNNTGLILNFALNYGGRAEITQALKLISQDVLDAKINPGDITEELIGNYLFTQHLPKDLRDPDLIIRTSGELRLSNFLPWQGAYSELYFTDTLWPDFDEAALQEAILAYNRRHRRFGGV
Text: as §2

S. aureus membrane = experiment: In vitro activity in depolarization of S. aureus membrane; assay type: cell-based; details: read-out: DEP IC50
Text: as §2

[2] = test system: mammalian_red blood cell membrane; experiment: In vitro mammalian red blood cell membrane lysis activity; assay type: cell-based; details: read-out: RBC IC50
Text: as §2

Candida albicans = experiment: MIC determination (fungus), Candida albicans; assay type: cell-based
Experimental: MIC Determination (Fungus); MICs were determined for the antifungus by microdilution methods using RPMI 1640 medium buffered with morpholinopropanesulfonic acid (MOPS) and supplemented with L-glutamine as described by CLSI procedures (M27-A method) (Reference method for broth dilution antifungal susceptibility testing of yeasts; Approved standard—[…]. 2006, M27-A2, CLSI, Wayne Pa.).

[3] = test system: human embryonic kidney 293 cells; experiment: in vitro toxicities against human embryonic kidney 293 cells; assay type: cell-based
Text: as §2

[4] = test system: human peripheral blood cells; experiment: in vitro toxicities human peripheral blood cells; assay type: cell-based
Text: as §2

[5] = assay type: physicochemical; details: pH 7.4
Text: as §2

[6] = test system: S. aureus 1, ATCC13709 in vivo (methicillin sensitive); experiment: MIC determination (bacteria), S1; assay type: cell-based
Experimental: (§3) MIC Determination (Bacteria);
(§4) MICs were determined based on Clinical and Laboratory Standards Institute (CLSI) methodology (Methods for dilution antimicrobial susceptibility tests for bacteria that grow aerobically; Approved Standard—seventh edition. 2006, M7-A7, CLSI, Wayne Pa.) by a 2-fold broth dilution technique in Mueller Hinton (pH7.4 Biorad). For S. pneumoniae, the medium was supplemented with 2.5% laked horse blood. For H. influenzae, the medium was haemophilus test medium (H.T.M.). Overnight cultures were diluted to obtain the final inoculum of 10^5 cfu/well. Incubation was 37° C. overnight in ambient air. The MIC was defined as the lowest concentration which inhibited all visual growth and expressed in μg/ml. For each bacterial species, all of the molecules were tested in the same experiment in order to give a head-to-head comparison.

[7] = test system: S. aureus 26, ATCC25923 (vancomycin susceptible); experiment: MIC determination (bacteria), S26; assay type: cell-based
Experimental: as §3, §4

S. aureus 4, Oxford = experiment: MIC determination (bacteria), S4; assay type: cell-based
Experimental: as §3, §4

[8] = test system: S. aureus 2, (MRSA in vivo); experiment: MIC determination (bacteria), S2; assay type: cell-based
Experimental: as §3, §4

[9] = test system: E. faecalis 1, ATCC29212 VanS (vancomycin susceptible); experiment: MIC determination (bacteria), E1; assay type: cell-based
Experimental: as §3, §4

[10] = test system: E. faecium 1, VanA (vancomycin resistant); experiment: MIC determination (bacteria), E2; assay type: cell-based
Experimental: as §3, §4

[11] = test system: S. pneumonia 1, ATCC49619 (erythromycin susceptible); experiment: MIC determination (bacteria), P1; assay type: cell-based
Experimental: as §3, §4

[12] = test system: S. pneumonia 9, (multi-drug resistant); experiment: MIC determination (bacteria), P9 / P9B; assay type: cell-based; details: for MIC P9: S. pneumonia 9, multi-drug resistant; for MIC P9B: S. pneumonia 9 in presence of 2.5% horse blood
Experimental: as §3, §4

[13] = test system: H. influenzae 3, ATCC31517 MMSA; experiment: MIC determination (bacteria), H3; assay type: cell-based
Experimental: as §3, §4

[14] = test system: H. influenzae 4, LS2 Efflux ko; experiment: MIC determination (bacteria), H4; assay type: cell-based
Experimental: as §3, §4

E. coli X580 = experiment: hole-plate method, inhibition zones, E. coli; assay type: cell-based; details: inhibition zone diameter
Experimental: as §1

plasma protein = assay type: in vitro ADME
Text: as §2

CCOC(=O)C1=C(O)C2CS[C@@H](c3ccc(F)cc3Cl)N2C1=O (stereo partly shown)
Bioactivity (mm) S. aureus (4 mg/ml) [1]: 18 mm

CCOC(=O)C12C(=O)C(=C(O)CC(C)(C)CC(=O)OCCC34CC5CC(CC(C5)C3)C4)C(=O)N1C(C(C)(C)C)OC2C (racemic) [Compound 6G]
IC50 (E. Coli RNAP): 2.4 µM | IC50 (S. pneumonia UPPS): 1.9 µM | IC50 (S. aureus membrane): > 100 µM | IC50 [2]: > 100 µM | CAN MIC (Candida albicans): >32 µg/mL | HEK LD50 [3]: 10.1 µM | PMB LD50 [4]: >90.9 µM | SOL [5]: >300 µM | MIC S1 [6]: 0.5 µg/mL (≈ 0.851 µM) | MIC S26 [7]: 1 µg/mL (≈ 1.7 µM) | MIC S4 (S. aureus 4, Oxford): 1 µg/mL (≈ 1.7 µM) | MIC S2 [8]: 0.5 µg/mL (≈ 0.851 µM) | MIC E1 [9]: 1 µg/mL (≈ 1.7 µM) | MIC E2 [10]: 0.5 µg/mL (≈ 0.851 µM) | MIC P1 [11]: 2 µg/mL (≈ 3.4 µM) | MIC P9 [12]: 1 µg/mL (≈ 1.7 µM) | MIC P9B [12]: 4 µg/mL | MIC H3 [13]: >64 µg/mL | MIC H4 [14]: 2 µg/mL (≈ 3.4 µM)

O=C(NC12CC3CC(CC(C3)C1)C2)C1=C(O)C2CS[C@@H](c3ccc(F)cc3)N2C1=O (stereo partly shown)
Bioactivity (mm) S. aureus 0.001 mg/ml [1]: 21 mm | Bioactivity (mm) S. aureus 0.01 mg/ml [1]: 27 mm | Bioactivity (mm) E. coli 0.01 mg/ml (E. coli X580): 14 mm

CC(C)(C)C1OCC2(C)C(=O)C(C(=O)NC34CC5CC(CC(C5)C3)C4)C(=O)N12 (racemic) [(±)-2A]
IC50 (E. Coli RNAP): 17 µM | IC50 (S. pneumonia UPPS): 0.38 µM | IC50 (S. aureus membrane): 10.8 µM | IC50 [2]: > 100 µM | CAN MIC (Candida albicans): >32 µg/mL | HEK LD50 [3]: 30.3 µM | PMB LD50 [4]: 30.3 µM | SOL [5]: 75 to 150 µM | MIC S1 [6]: 1 µg/mL (≈ 2.57 µM) | MIC S26 [7]: 2 µg/mL (≈ 5.15 µM) | MIC S4 (S. aureus 4, Oxford): 1 µg/mL (≈ 2.57 µM) | MIC S2 [8]: 1 µg/mL (≈ 2.57 µM) | MIC E1 [9]: 1 µg/mL (≈ 2.57 µM) | MIC E2 [10]: 1 µg/mL (≈ 2.57 µM) | MIC P1 [11]: 1 µg/mL (≈ 2.57 µM) | MIC P9 [12]: 1 µg/mL (≈ 2.57 µM) | MIC P9B [12]: 1 µg/mL | MIC H3 [13]: 2 µg/mL (≈ 5.15 µM) | MIC H4 [14]: 1 µg/mL (≈ 2.57 µM)

CCOC(=O)C1=C(O)C2CSC(c3ccc(Br)cc3)N2C1=O (stereo not shown)
Bioactivity (mm) S. aureus (4 mg/ml) ([1]; Cm): 1.7 Cm

CCOC(=O)C1=C(O)C2CSC(c3ccc(CO[Si](C)(C)C(C)(C)C)cc3)N2C1=O (stereo not shown)
Bioactivity (mm) S. aureus (4 mg/ml) ([1]; Cm): 2.3 Cm

CC(C)(C)[Si](C)(C)OCc1ccc([C@@H]2SCC3C(O)=C(C(=O)NC45CC6CC(CC(C6)C4)C5)C(=O)N32)cc1 (stereo partly shown)
Bioactivity (mm) S. aureus 0.25 mg/ml [1]: 12 mm | Bioactivity (mm) S. aureus 0.5 mg/ml [1]: 13 mm

O=C(NC12CC3CC(CC(C3)C1)C2)C1=C(O)C2CS[C@@H](c3ccccc3)N2C1=O (stereo partly shown)
Bioactivity (mm) S. aureus 0.01 mg/ml [1]: 22 mm | Bioactivity (mm) E. coli 0.001 mg/ml (E. coli X580; 0.001 mg/ml): 15 mm | Bioactivity (mm) E. coli 0.01 mg/ml (E. coli X580): 15 mm

CCOC(=O)C1=C(O)C2CS[C@@H](c3ccc([N+](=O)[O-])cc3)N2C1=O (stereo partly shown)
Bioactivity (mm) S. aureus (4 mg/ml) [1]: 16 mm

O=C(NC12CC3CC(CC(C3)C1)C2)C1=C(O)C2CS[C@@H](c3ccc([N+](=O)[O-])cc3)N2C1=O (stereo partly shown)
Bioactivity (mm) S. aureus 0.001 mg/ml [1]: 19 mm | Bioactivity (mm) S. aureus 0.01 mg/ml [1]: 25 mm | Bioactivity (mm) E. coli 0.01 mg/ml (E. coli X580): 14 mm

CCOC(=O)C12C(=O)C(=C(O)CC34CC5CC(C)(CC(C)(C5)C3)C4)C(=O)N1C(C(C)(C)C)OC2C (racemic) [Compound 6C]
IC50 (E. Coli RNAP): 4 µM | IC50 (S. pneumonia UPPS): 3.2 µM | IC50 (S. aureus membrane): > 100 µM | IC50 [2]: > 100 µM | CAN MIC (Candida albicans): >32 µg/mL | HEK LD50 [3]: 90.9 µM | PMB LD50 [4]: >90.9 µM | SOL [5]: >300 µM | PPB (plasma protein): 99.8% | MIC S1 [6]: 2 µg/mL (≈ 4.1 µM) | MIC S26 [7]: 2 µg/mL (≈ 4.1 µM) | MIC S4 (S. aureus 4, Oxford): 2 µg/mL (≈ 4.1 µM) | MIC S2 [8]: 1 µg/mL (≈ 2.05 µM) | MIC E1 [9]: 2 µg/mL (≈ 4.1 µM) | MIC E2 [10]: 1 µg/mL (≈ 2.05 µM) | MIC P1 [11]: 0.5 µg/mL (≈ 1.03 µM) | MIC P9 [12]: 0.5 µg/mL (≈ 1.03 µM) | MIC P9B [12]: 1 µg/mL | MIC H3 [13]: 64 µg/mL (≈ 131 µM) | MIC H4 [14]: 0.25 µg/mL (≈ 0.513 µM)

O=C(NC12CC3CC(CC(C3)C1)C2)C1=C(O)C2CS[C@@H](c3ccc(F)cc3Cl)N2C1=O (stereo partly shown)
Bioactivity (mm) S. aureus 0.001 mg/ml [1]: 21 mm | Bioactivity (mm) S. aureus 0.01 mg/ml [1]: 25 mm | Bioactivity (mm) E. coli 0.01 mg/ml (E. coli X580): 14 mm

CCOC(=O)CC(=O)N1C(c2ccc(F)cc2Cl)SC[C@@H]1C(=O)OC (stereo partly shown)
Bioactivity (mm) E. coli (4 mg/ml) (E. coli X580; 4 mg/ml): 16 mm

Cc1cc(Cl)ccc1NC(=O)C1=C(O)C2CS[C@@H](c3ccc(Br)cc3)N2C1=O (stereo partly shown)
Bioactivity (mm) S. aureus 0.25 mg/ml [1]: 25 mm | Bioactivity (mm) S. aureus 0.5 mg/ml [1]: 26 mm

CC(C)(C)C1OCC2(C)C(O)=C(C(=O)NCC3CCCCC3)C(=O)N12 (racemic) [(±)-2E]
IC50 (E. Coli RNAP): 31 µM | IC50 (S. pneumonia UPPS): 0.68 µM | IC50 (S. aureus membrane): 84.3 µM | IC50 [2]: > 100 µM | CAN MIC (Candida albicans): >32 µg/mL | HEK LD50 [3]: 90.9 µM | PMB LD50 [4]: 90.9 µM | SOL [5]: >300 µM | PPB (plasma protein): 96.6% | MIC S1 [6]: 4 µg/mL (≈ 11.4 µM) | MIC S26 [7]: 4 µg/mL (≈ 11.4 µM) | MIC S4 (S. aureus 4, Oxford): 4 µg/mL (≈ 11.4 µM) | MIC S2 [8]: 2 µg/mL (≈ 5.71 µM) | MIC E1 [9]: 2 µg/mL (≈ 5.71 µM) | MIC E2 [10]: 1 µg/mL (≈ 2.85 µM) | MIC P1 [11]: 2 µg/mL (≈ 5.71 µM) | MIC P9 [12]: 1 µg/mL (≈ 2.85 µM) | MIC P9B [12]: 1 µg/mL | MIC H3 [13]: 4 µg/mL (≈ 11.4 µM) | MIC H4 [14]: 0.12 µg/mL (≈ 0.342 µM)

CCOC(=O)C1=C(O)C2CSC(c3cccc(Br)c3)N2C1=O (stereo not shown)
Bioactivity (mm) S. aureus (4 mg/ml) ([1]; Cm): 2.0 Cm
